Assay results reported in patent US10266497B2 (ABIDE THERAPEUTICS, INC., priority 2017, dated 2019).
Like-named read-outs stand apart in the source and are kept apart here.

How the values were obtained:
MAGL [1] = target: T1, MAGL (Homo sapiens, UniProt Q99685); experiment: In vitro competitive activity-based protein profiling, MAGL, human; settings: for inhibition at 1 µM: read-out: MAGL % inh. 1 μM (human)
T1 sequence (Q99685 1-303): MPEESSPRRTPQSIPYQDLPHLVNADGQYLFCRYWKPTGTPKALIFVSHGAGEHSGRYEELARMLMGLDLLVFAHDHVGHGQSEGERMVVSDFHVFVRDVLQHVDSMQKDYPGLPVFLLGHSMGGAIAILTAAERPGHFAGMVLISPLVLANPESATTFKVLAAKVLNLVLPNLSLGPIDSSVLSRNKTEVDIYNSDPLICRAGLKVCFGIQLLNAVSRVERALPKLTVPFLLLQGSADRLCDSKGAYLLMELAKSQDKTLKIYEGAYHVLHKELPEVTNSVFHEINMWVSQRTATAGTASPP

MAGL [2] = target: T2, MAGL (Mus musculus, UniProt O35678); experiment: In vitro competitive activity-based protein profiling, MAGL, mouse; settings: read-out: MAGL % inh. 1 μM (mouse)
T2 sequence (O35678 1-303): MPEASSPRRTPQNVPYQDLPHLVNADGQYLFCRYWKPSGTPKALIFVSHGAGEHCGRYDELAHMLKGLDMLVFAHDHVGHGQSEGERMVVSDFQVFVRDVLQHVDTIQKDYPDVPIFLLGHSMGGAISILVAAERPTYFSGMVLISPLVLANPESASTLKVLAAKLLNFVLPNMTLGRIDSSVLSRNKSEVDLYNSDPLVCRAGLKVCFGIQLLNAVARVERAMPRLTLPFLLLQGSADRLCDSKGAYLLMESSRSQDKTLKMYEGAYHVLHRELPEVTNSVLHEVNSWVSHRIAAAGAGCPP

MAGL [3] = target: T2, MAGL; experiment: Mouse brain proteomes from inhibitor treated mice (oral gavage, sacrificed 4 h after administration); type: in vivo; parameters: mouse brain membrane fraction for mouse assays; from tissue; host or cells: mouse brain (membrane fraction in vitro; brain proteomes of treated C57Bl/6J mice in vivo); settings: 5 mg/kg oral gavage, brain proteome 4 h after administration, read-out: MAGL % inh. 5 mg/kg (mouse)
FAAH [4] = target: T3, FAAH (Homo sapiens, UniProt O00519); experiment: In vitro competitive activity-based protein profiling, FAAH, human; settings: for inhibition at 1 µM: read-out: FAAH % inh. 1 μM (human)
T3 sequence (O00519 1-579): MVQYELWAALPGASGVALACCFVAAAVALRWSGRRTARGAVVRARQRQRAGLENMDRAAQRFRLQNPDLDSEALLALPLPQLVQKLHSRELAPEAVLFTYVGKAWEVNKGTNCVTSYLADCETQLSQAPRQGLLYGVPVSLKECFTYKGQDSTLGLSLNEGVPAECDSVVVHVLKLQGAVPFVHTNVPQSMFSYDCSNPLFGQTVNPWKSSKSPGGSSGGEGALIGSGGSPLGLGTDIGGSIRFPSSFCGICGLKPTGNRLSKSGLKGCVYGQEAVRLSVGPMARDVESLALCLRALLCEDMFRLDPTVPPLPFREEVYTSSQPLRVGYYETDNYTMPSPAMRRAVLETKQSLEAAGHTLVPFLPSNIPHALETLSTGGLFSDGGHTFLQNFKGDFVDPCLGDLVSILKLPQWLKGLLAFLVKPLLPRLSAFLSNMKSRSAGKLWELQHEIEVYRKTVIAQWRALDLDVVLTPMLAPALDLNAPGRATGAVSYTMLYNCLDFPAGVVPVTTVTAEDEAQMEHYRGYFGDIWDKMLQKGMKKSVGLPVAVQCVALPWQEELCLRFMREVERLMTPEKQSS

FAAH [5] = target: T4, FAAH (Mus musculus, UniProt O08914); experiment: In vitro competitive activity-based protein profiling, FAAH, mouse; settings: read-out: FAAH % inh. 1 μM (mouse)
T4 sequence (O08914 1-579): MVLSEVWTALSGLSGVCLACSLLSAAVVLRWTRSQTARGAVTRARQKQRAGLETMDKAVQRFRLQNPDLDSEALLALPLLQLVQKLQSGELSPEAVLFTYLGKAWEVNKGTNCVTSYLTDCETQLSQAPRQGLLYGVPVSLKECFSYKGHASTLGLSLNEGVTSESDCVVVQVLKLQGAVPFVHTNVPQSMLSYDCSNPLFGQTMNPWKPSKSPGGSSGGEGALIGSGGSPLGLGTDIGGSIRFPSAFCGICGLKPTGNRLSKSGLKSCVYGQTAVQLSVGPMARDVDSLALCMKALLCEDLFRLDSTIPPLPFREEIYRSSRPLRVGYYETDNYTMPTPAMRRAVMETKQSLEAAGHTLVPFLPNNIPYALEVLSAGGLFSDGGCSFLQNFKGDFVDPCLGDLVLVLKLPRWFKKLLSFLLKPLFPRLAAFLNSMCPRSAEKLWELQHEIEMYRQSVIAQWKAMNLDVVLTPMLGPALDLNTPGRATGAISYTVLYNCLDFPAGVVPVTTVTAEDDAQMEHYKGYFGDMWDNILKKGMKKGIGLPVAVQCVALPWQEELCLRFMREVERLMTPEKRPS

Row | inhibition at 1 µM (MAGL [1]) [%] | inhibition at 1 µM (MAGL [2]) [%] | inhibition at 5 mg/kg (MAGL [3]; C57Bl/6J mice) [%] | inhibition at 5 mg/kg (MAGL [3]) [%] | IC50 (MAGL [1]) [nM] | IC50 (FAAH [4]) [nM] | inhibition at 1 µM (FAAH [4]) [%] | inhibition at 1 µM (FAAH [5]) [%] | SMILES
1 | > 75 | > 75 | 0 to 25 |  |  |  |  |  | O=C(O)c1ccn(C(=O)N2CCC3(CCCN3Cc3ccc(C(F)(F)F)cc3N3CCCCC3)CC2)n1 [Example 404, 1-(1-(2-(piperidin-1-yl)-4-(trifluoromethyl)benzyl)-1,8-diazaspiro[4.5]decane-8-carbonyl)-1H-pyrazole-3-carboxylic acid]
2 |  | > 75 | > 75 |  |  |  |  |  | CNC(=O)c1ccn(C(=O)N2CC3CN(Cc4ccc(Cl)cc4)CC3C2)n1 (stereo not shown) [Example 424, 1-(5-(4-chlorobenzyl)octahydropyrrolo [3,4-c]pyrrole-2-carbonyl)-N-methyl-1H-pyrazole-3-carboxamide]
3 | > 75 | > 75 | 0 to 25 |  |  |  |  |  | CN(Cc1ccc(C(F)(F)F)cc1N1CCCCC1)C1(C)CCN(C(=O)n2ccc(C(=O)O)n2)CC1 [Example 397, 1-(4-methyl-4-(methyl(2-(piperidin-1-yl)-4-(trifluoromethyl)benzyl)amino)piper-idine-1-carbonyl)-1H-pyrazole-3-carboxylic acid]
4 | > 75 | > 75 |  | 0 to 25 |  |  |  |  | Cc1ccc(Oc2cccc(CN3CCN(C(=O)n4ccc(C(=O)O)n4)CC3)c2)cc1 [Example 251, 1-(4-(3-(p-tolyloxy)benzyl)pi-perazine-1-carbonyl)-1H-pyrazole-3-carboxylic acid]
5 | > 75 | > 75 |  | 0 to 25 |  |  |  |  | O=C(O)c1ccn(C(=O)N2CCC3(CCN(Cc4cc(Cl)cc(Cl)c4Cl)C3)CC2)n1 [Example 337, 1-(2-(2,3,5-trichlorobenzyl)-2,8-diazaspiro[4.5]decane-8-carbonyl)-1H-pyrazole-3-carboxylic acid]
6 | > 75 | > 75 |  | 0 to 25 |  |  |  |  | C[C@H]1CC[C@H](C)N1c1cc(C(F)(F)F)ccc1CN1CCN(C(=O)n2ccc(C(=O)O)n2)CC1 [Example 360, 1-(4-(2-((2S,5S)-2,5-dimethylpyrrolidin-1-yl)-4-(trifluoromethyl)benzyl)piperazine-1-carbonyl)-1H-pyrazole-3-carboxylic acid]
7 | > 75 | > 75 |  | 0 to 25 |  |  |  |  | CN(Cc1ccc(C(F)(F)F)c(N2CCCC2)c1)C1(C)CCN(C(=O)n2ccc(C(=O)O)n2)CC1 [Example 385, 1-(4-methyl-4-(methyl(3-(pyrrolidin-1-yl)-4-(trifluoromethyl)benzyl)amino)piper-idine-1-carbonyl)-1H-pyrazole-3-carboxylic acid]
8 | > 75 | > 75 |  | 0 to 25 |  |  |  |  | NC(=O)c1ccn(C(=O)N2CC3CN(Cc4ccc(C5(C(=O)O)CCOCC5)cc4C(F)(F)F)CC3C2)n1 (stereo not shown) [Example 35, 4-(4-((5-(3-carbamoyl-1H-pyrazole-1-carbonyl)hexahydropyrrolo[3,4-c]pyrrol-2(1H)-yl)methyl)-3-(trifluoromethyl)phenyl)tetrahydro-2H-pyran-4-carboxylic Acid]
9 | > 75 | > 75 |  | 0 to 25 |  |  |  |  | C[C@@H]1CC[C@@H](C)N1c1cc(C(F)(F)F)ccc1CN1CCN(C(=O)n2ccc(C(=O)O)n2)CC1 [Example 359, 1-(4-(2-((2R,5R)-2,5-dimethylpyrrolidin-1-yl)-4-(trifluoromethyl)benzyl)piperazine-1-carbonyl)-1H-pyrazole-3-carboxylic acid]
10 | > 75 | > 75 |  | 0 to 25 |  |  |  |  | C[C@@H]1CN(Cc2ccc(C(F)(F)F)cc2N2CCCC2)CCN1C(=O)n1ccc(C(=O)O)n1 [Example 327, (R)-1-(2-methyl-4-(2-(pyrrolidin-1-yl)-4-(trifluoromethyl)benzyl)piperazine-1-carbonyl)-1H-pyrazole-3-carboxylic acid]
11 | > 75 | > 75 |  | 0 to 25 |  |  |  |  | C[C@H]1CN(Cc2cccc(Oc3ccc(Cl)cc3)c2)CCN1C(=O)n1ccc(C(=O)O)n1 [Example 311, (S)-1-(4-(3-(4-chlorophenoxy)benzyl)-2-methylpiperazine-1-carbonyl)-1H-pyrazole-3-carboxylic acid]
12 | > 75 | > 75 |  | 0 to 25 |  |  |  |  | O=C(O)c1ccn(C(=O)N2CCC(Oc3cc(N4CCCC4)cc(C(F)(F)F)c3)CC2)n1 [Example 308, 1-(4-(3-(pyrrolidin-1-yl)-5-(trifluoromethyl)phenoxy)piperidine-1-carbonyl)-1H-pyrazole-3-carboxylic acid]
13 |  | > 75 | > 75 |  |  |  |  |  | NC(=O)c1ccn(C(=O)N2CCC3(CCN(Cc4cc(Cl)cc(C(F)(F)F)c4)C3)C2)n1 (stereo not shown) [Example 433, 1-(7-(3-chloro-5-(trifluoromethyl)benzyl)-2,7-diazaspiro[4.4]non-ane-2-carbonyl)-1H-pyrazole-3-carboxamide]
14 |  | > 75 | > 75 |  |  |  |  |  | NC(=O)c1ccn(C(=O)N2CCC3(CCN(Cc4cc(Cl)ccc4Cl)C3)C2)n1 (stereo not shown) [Example 426, 1-(7-(2,5-dichlorobenzyl)-2,7-diazaspiro[4.4]non-ane-2-carbonyl)-1H-pyrazole-3-carboxamide]
15 | > 75 | > 75 |  |  | 100 to 1000 | 100 to 1000 | > 75 | > 75 | O=C(O)c1nn(C(=O)N2CC3CN(Cc4cccc(Oc5ccc(Cl)cc5)c4)CC3C2)cc1Cl (stereo not shown) [Example 137, 4-chloro-1-(5-(3-(4-chlorophenoxy)benzyl)octahydro-pyrrolo[3,4-c]pyrrole-2-carbonyl)-1H-pyrazole-3-carboxylic acid]
16 | 50 to 75 | 0 to 25 |  |  |  |  | 0 to 25 | 0 to 25 | O=C(O)c1ccn(C(=O)N2CCN(Cc3cccc(Oc4ncccn4)c3)CC2)n1 [Example 62, 1-(4-(3-(pyrimidin-2-yloxy)benzyl)piper-azine-1-carbonyl)-1H-pyrazole-3-carboxylic acid]

Row | SMILES | inhibition at 1 µM (MAGL [1]) [%] | inhibition at 1 µM (MAGL [2]) [%] | inhibition at 5 mg/kg (MAGL [3]; C57Bl/6J mice) [%] | inhibition at 5 mg/kg (MAGL [3]) [%] | IC50 (MAGL [1]) [nM] | IC50 (FAAH [4]) [nM] | inhibition at 1 µM (FAAH [4]) [%] | inhibition at 1 µM (FAAH [5]) [%]
17 | C[C@@H]1CN(Cc2ccc(C(F)(F)F)cc2N2C3CCC2COC3)CCN1C(=O)n1ccc(C(=O)O)n1 [Example 393, 1-((2R)-4-(2-(3-oxa-8-azabicyclo[3.2.1]octan-8-yl)-4-(trifluoromethyl)benzyl)-2-methylpiperazine-1-carbonyl)-1H-pyrazole-3-carboxylic acid] | > 75 | > 75 |  | 0 to 25 |  |  |  | 
